Reference: paper PMC3850452, “Glycolic acid production in the engineered yeasts Saccharomyces cerevisiae and Kluyveromyces lactis” (Microbial Cell Factories, 2013)
Values belong to the molecule of their own block, whether it stands above or below them.

Columns and labels:
[1] = biological target: T1, GLYR1 (Arabidopsis thaliana, UniProt Q9LSV0); assay: NADPH consumption at […] nm, Michaelis-Menten fit; type: biochemical; settings: crude extract of overexpressing yeast; 200 μM NADPH; 50 mM sodium phosphate pH 7; 30 °C
T1 construct: full-length gene codon optimised for yeast, TPI1 promoter multicopy plasmid (p2159/pYX212), expressed in S. cerevisiae; crude cell extract, no tag told
T1 sequence (Q9LSV0 1-289): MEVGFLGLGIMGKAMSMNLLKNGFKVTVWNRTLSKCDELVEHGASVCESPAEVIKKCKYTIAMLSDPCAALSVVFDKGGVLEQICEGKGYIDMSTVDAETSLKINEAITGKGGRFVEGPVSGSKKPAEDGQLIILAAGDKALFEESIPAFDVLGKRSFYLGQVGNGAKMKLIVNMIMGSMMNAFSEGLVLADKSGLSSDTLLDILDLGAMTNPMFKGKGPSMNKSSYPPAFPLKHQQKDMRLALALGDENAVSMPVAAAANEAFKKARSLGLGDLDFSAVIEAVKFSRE

[2] = substrate: O=CC(=O)O; assay: cells, lysate or membranes; type: biochemical, Saccharomyces cerevisiae; settings: crude extract of overexpressing yeast, 200 μM NADPH, 50 mM sodium phosphate pH 7, 30 °C

Km [1]: 38.8 µM
Molecule: O=CC(=O)O [glyoxylic acid]

B1: Gor1p (Saccharomyces cerevisiae S288C) (protein)
chain: MSKKPIVLKLGKDAFGDQAWGELEKIADVITIPESTTREQFLREVKDPQNKLSQVQVITRTARSVKNTGRFDEELALALPSSVVAVCHTGAGYDQIDVEPFKKRHIQVANVPDLVSNATADTHVFLLLGALRNFGIGNRRLIEGNWPEAGPACGSPFGYDPEGKTVGILGLGRIGRCILERLKPFGFENFIYHNRHQLPSEEEHGCEYVGFEEFLKRSDIVSVNVPLNHNTHHLINAETIEKMKDGVVIVNTARGAVIDEQAMTDALRSGKIRSAGLDVFEYEPKISKELLSMSQVLGLPHMGTHSVETRKKMEELVVENAKNVILTGKVLTIVPELQNEDWPNESKPLV
notes: endogenous gene overexpressed from multicopy plasmid in S. cerevisiae; crude cell extract, no tag told
Km [2]: 1900 µM
